Measured values: patent publication US20080009802A1, “Method of treating acne with stratum corneum piercing device” (priority 2005, published 2008)
Read-outs that look alike come from different tables or passages of the source.

Test system: skin site on subject's forearm or face
Details: for ENHANCED ACTIVE DELIVERY (HISTAMINE RESPONSE): about 10 microliters 0.10% wt/wt histamine, visual inspection after 10 minutes
Method: The microprotrusion disk of Example 1 was affixed on the desired skin site on subject's forearm or face. The implement of Example 3 was used to push the microprotrusion disk through stratum corneum with predetermined impact pressure modified by the choice of spring. The impact pressure was measured using a digital force meter (Model DFM 10, Chatillon, Greensboro, N.C.). The contact area between the implement device and skin was determined to be about 1.2 cm in diameter. The pressure per unit area was calculated from the ratio of pressure/contact area. The disk was removed immediately after the application. Both subject sensation (e.g., pain and sting) and erythema of the testing site were recorded immediately after the application, and is reported in Table 1.
The reaction of the subject's skin to histamine (e.g., erythema) was recorded after 10 minutes following histamine application to the treatment site by visual inspection. Additional inspection followed if a reaction was detected at 10 minutes. Controls were run by applying histamine solution to untreated skin sites (e.g., sites not pierced by the microprotrusion members). All test sites were graded visually for the evidence of post-inflammatory hyperpigmentation (PIH) for up to at least 3 weeks.

skin's reaction to topically applied histamine (control test sites: untreated skin, not pierced by the microprotrusion members): did not result in erythema
skin's reaction to topically applied histamine (following microprotrusion treatment): manifested in erythema
ENHANCED ACTIVE DELIVERY (HISTAMINE RESPONSE) (subject 1/Forearm, microprotrusion length 225 micrometer, 8 lbs/cm^2): Yes,
ENHANCED ACTIVE DELIVERY (HISTAMINE RESPONSE) (subject 2/Forearm, microprotrusion length 225 micrometer, 6 lbs/cm^2): Yes,
ENHANCED ACTIVE DELIVERY (HISTAMINE RESPONSE) (subject 3/Cheek (bone), microprotrusion length 185 micrometer, 3.2 lbs/cm^2): Yes, but not
ENHANCED ACTIVE DELIVERY (HISTAMINE RESPONSE) (subject 4/Forearm, microprotrusion length 185 micrometer, 4.6 lbs/cm^2): Yes,
ENHANCED ACTIVE DELIVERY (HISTAMINE RESPONSE) (subject 5/Forearm, microprotrusion length 185 micrometer, 8 lbs/cm^2): Yes,
ENHANCED ACTIVE DELIVERY (HISTAMINE RESPONSE) (subject 6/Forehead, microprotrusion length 145 micrometer, 5 lbs/cm^2): Yes,
Structure (SMILES): NCCc1c[nH]cn1 [histamine]
